Counter-ions that a name gives are not always drawn.
How the values were obtained:
[1] = target: T1, adenosine A2A receptor (Rattus norvegicus, UniProt P30543); experiment: Adenosine A2A receptor binding test (3H-CGS 21680 binding); settings: test compound 10^−7 mol/L, 3H-CGS 21680 binding, rat corpus striatum; for inhibition at 0.1 µM: read-out: A2A Receptor inhibition rate (%) at 10^−7 mol/L
T1 construct: from tissue; host or cells: rat corpus striatum membrane preparation
Method: The test was carried out according to the method of Bruns et al. [Molecular Pharmacology, vol. 29, p.
Rat corpus striatum was suspended in an ice-cold 50 mmol/L tris(hydroxymethyl)aminomethane hydrochloride (referred to as “Tris HCl” hereinafter) buffer (pH 7.7) using a Polytron homogenizer (produced by Kinematica Co.). The suspension was centrifuged (50,000×g, 10 minutes), and the resulting precipitate was again suspended in the same amount of a 50 mmol/L Tris HCl buffer, followed by centrifugation under the same conditions. The resulting finalprecipitate was again suspended in a 50 mmol/L-Tris HCl buffer [containing 10 mmol/L of magnesium chloride and 0.02 unit/mg tissue of adenosine deaminase (produced by Sigma Co.)] so that the tissue concentration was 5 mg (wet weight)/mL.
The radioactivity on the filter was determined with a liquid scintillation counter (produced by Packard Instrument Co.).
In the equation, X represents Amount of binding in the presence of a medicament, Y represents Amount of nonspecific binding, and Z represents Amount of total binding.

T1 sequence (P30543 whole entry): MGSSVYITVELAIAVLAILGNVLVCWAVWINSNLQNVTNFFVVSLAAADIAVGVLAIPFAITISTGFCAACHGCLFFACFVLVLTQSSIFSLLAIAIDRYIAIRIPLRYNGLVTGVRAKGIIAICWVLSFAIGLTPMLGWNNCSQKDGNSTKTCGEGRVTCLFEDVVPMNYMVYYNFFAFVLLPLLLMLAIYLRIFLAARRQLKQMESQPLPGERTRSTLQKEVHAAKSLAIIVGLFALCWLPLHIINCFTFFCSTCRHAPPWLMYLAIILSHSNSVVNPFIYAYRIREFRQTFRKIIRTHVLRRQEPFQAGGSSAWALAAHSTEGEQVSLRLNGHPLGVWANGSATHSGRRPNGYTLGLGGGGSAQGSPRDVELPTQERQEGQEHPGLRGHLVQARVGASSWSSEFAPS

inhibition at 0.1 µM [1] [%] | melting point | Molecule | further results
– | – | 5-Amino-2-(2-furyl)-7-(2-phenylthienyl)[1,2,4]triazolo[1,5-c]pyrimidine [Compound 65] | A2A Receptor inhibition rate (%) at 10^−7 mol/L [1]: 96%
64 | – | CC(=O)NCCNCc1ccccc1-c1cc2nc(-c3ccco3)nn2c(N)n1 [Compound 7, 5-Amino-7-{2-[2-(N-acetylamino)ethylaminomethyl]phenyl}-2-(2-furyl)[1,2,4]triazolo[1,5-c]pyrimidine monohydrochloride] | –
36 | – | CC(=O)NCCNCc1ccc(-c2cc3nc(-c4ccco4)nn3c(N)n2)cc1 [Compound 16, 7-{4-[2-(N-acetylamino)ethylaminomethyl]phenyl}-5-amino-2-(2-furyl)[1,2,4]triazolo[1,5-c]pyrimidine monohydrochloride] | –
70 | – | COc1cc(CNCc2ccc(-c3cc4nc(-c5ccco5)nn4c(N)n3)cc2)cc(OC)c1 [Compound 17, 5-Amino-7-[4-(3,5-dimethoxybenzylaminomethyl)phenyl]-2-(2-furyl)[1,2,4]triazolo[1,5-c]pyrimidine monohydrochloride] | –
– | 167.2 to 167.6 °C | COCc1cc2nc(-c3ccco3)nn2c(N)n1 [Compound 23, 5-Amino-2-(2-furyl)-7-methoxymethyl[1,2,4]triazolo[1,5-c]pyrimidine] | –
– | 153.8 to 154.6 °C | CCOCc1cc2nc(-c3ccco3)nn2c(N)n1 [Compound 24, 5-Amino-7-ethoxymethyl-2-(2-furyl) [1,2,4]triazolo[1,5-c]pyrimidine] | –
47 | – | COC(C)(C)c1cc2nc(-c3ccco3)nn2c(N)n1 [Compound 25, 5-Amino-2-(2-furyl)-7-(1-methyl-1-methoxyethyl)[1,2,4]-triazolo[1,5-c]pyrimidine] | –
– | 196.8 to 197.1 °C | Nc1nc(COc2ccccc2F)cc2nc(-c3ccco3)nn12 [Compound 30, 5-Amino-7-(2-fluorophenoxymethyl)-2-(2-furyl) [1,2,4]-triazolo[1,5-c]pyrimidine] | –
– | 253.5 to 254 °C | Nc1nc(COc2cccnc2)cc2nc(-c3ccco3)nn12 [Compound 31, 5-Amino-2-(2-furyl)-7-(pyridin-3-yloxymethyl)[1,2,4]triazolo[1,5-c]pyrimidine] | –
– | 229 to 229.2 °C | Nc1nc(COc2ccccn2)cc2nc(-c3ccco3)nn12 [Compound 32, 5-Amino-2-(2-furyl)-7-(pyridin-2-yloxymethyl)[1,2,4]-triazolo[1,5-c]pyrimidine] | –
– | > 300 °C | Nc1nc(COc2ccncc2)cc2nc(-c3ccco3)nn12 [Compound 33, 5-Amino-2-(2-furyl)-7-(pyridin-4-yloxymethyl)[1,2,4]-triazolo[1,5-c]pyrimidine] | –
– | 136 to 136.5 °C | COc1ccc(CN(Cc2cc3nc(-c4ccco4)nn3c(N)n2)C(C)=O)cc1OC [Compound 34, 7-[(N-acetyl-3,4-dimethoxybenzylamino)methyl]-5-amino-2-(2-furyl)[1,2,4]triazolo[1,5-c]pyrimidine] | –
– | 279.2 to 279.6 °C | Nc1nc(CNc2ccccc2)cc2nc(-c3ccco3)nn12 [Compound 36, 5-Amino-7-anilinomethyl-2-(2-furyl)[1,2,4]triazolo[1,5-c]-pyrimidine] | –
– | 239.2 to 239.6 °C | Nc1nc(Cn2ccccc2=O)cc2nc(-c3ccco3)nn12 [Compound 37, 5-Amino-2-(2-furyl)-7-(2-oxopyridin-1-ylmethyl)[1,2,4]-triazolo[1,5-c]pyrimidine] | –
62 | – | COc1ccc(CNCc2cc3nc(-c4ccco4)nn3c(N)n2)cc1OC [Compound 42, 5-Amino-7-(3,4-dimethoxybenzylaminomethyl)-2-(2-furyl)-[1,2,4]triazolo[1,5-c]pyrimidine dihydrochloride] | –
60 | – | COc1cc(CNCc2cc3nc(-c4ccco4)nn3c(N)n2)cc(OC)c1 [Compound 43, 5-Amino-7-[(3,5-dimethoxybenzylamino)methyl]-2-(2-furyl)-[1,2,4]triazolo[1,5-c]pyrimidine dihydrochloride] | –
56 | – | Nc1nc(CNCCc2ccccn2)cc2nc(-c3ccco3)nn12 [Compound 44, 5-Amino-7-[2-(2-pyridyl)ethylaminomethyl]-2-(2-furyl)-[1,2,4]triazolo[1,5-c]pyrimidine dihydrochloride] | –
– | 190.5 to 190.9 °C | CC(=O)NCCNCc1cc2nc(-c3ccco3)nn2c(N)n1 [Compound 45, 5-Amino-7-[2-(N-acetylamino)ethylaminomethyl]-2-(2-furyl)-[1,2,4]triazolo[1,5-c]pyrimidine] | –
65 | – | Nc1nc(CN2CCN(CC3CC3)CC2)cc2nc(-c3ccco3)nn12 [Compound 50, 5-Amino-7-[4-(cyclopropylmethyl)piperazin-1-ylmethyl]-2-(2-furyl)[1,2,4]triazolo[1,5-c]pyrimidine dihydrochloride] | –
– | 279.2 to 279.9 °C | Nc1nc(-c2ccncc2)cc2nc(-c3ccco3)nn12 [Compound 54, 5-Amino-2-(2-furyl)-7-(4-pyridyl)[1,2,4]triazolo[1,5-c]-pyrimidine] | –
– | 271 °C (dec.) | Nc1nc(-c2cncnc2)cc2nc(-c3ccco3)nn12 [Compound 56, 5-Amino-2-(2-furyl)-7-(5-pyrimidinyl)[1,2,4]triazolo[1,5-c]-pyrimidine] | –
– | 227.8 to 228.5 °C | Cc1noc(C)c1-c1cc2nc(-c3ccco3)nn2c(N)n1 [Compound 57, 5-Amino-7-(3,5-dimethylisoxazol-4-yl)-2-(2-furyl)[1,2,4]-triazolo[1,5-c]pyrimidine] | –
– | 274.7 to 275 °C (dec.) | Nc1nc(-c2csc(NCCN3CCOCC3)n2)cc2nc(-c3ccco3)nn12 [Compound 59, 5-Amino-2-(2-furyl)-7-[2-(2-morpholinoethylamino)thiazol-4-yl][1,2,4]triazolo[1,5-c]pyrimidine] | –
– | 239.6 to 239.9 °C | Nc1nc(-c2ccc(CO)cc2)cc2nc(-c3ccco3)nn12 [Compound 61, 5-Amino-2-(2-furyl)-7-(4-hydroxymethylphenyl)[1,2,4]-triazolo[1,5-c]pyrimidine] | –
96 | – | Nc1nc(/C=C/CNCC2CC2)cc2nc(-c3ccco3)nn12 [Compound 68, 5-Amino-7-[3-(cyclopropylmethylamino)-(E)-propan-1-en-1-yl]-2-(2-furyl)[1,2,4]triazolo[1,5-c]pyrimidine] | –
– | 254.5 to 254.9 °C | Nc1nc(C(=O)NCc2ccc(F)c(F)c2)cc2nc(-c3ccco3)nn12 [Compound 82, 5-Amino-2-(2-furyl)[1,2,4]triazolo[1,5-c]pyrimidine-7-carboxylic acid (3,4-difluorobenzyl)amide] | –
– | 190.5 to 190.8 °C | COCCN(CCOC)C(=O)c1cc2nc(-c3ccco3)nn2c(N)n1 [Compound 88, 5-Amino-2-(2-furyl)[1,2,4]triazolo[1,5-c]pyrimidine-7-carboxylic acid [N,N-bis(2-methoxyethyl)]amide] | –
– | 198.5 to 198.8 °C | Nc1nc(C(=O)NCCCn2ccnc2)cc2nc(-c3ccco3)nn12 [Compound 90, 5-Amino-2-(2-furyl)[1,2,4]triazolo[1,5-c]pyrimidine-7-carboxylic acid [3-(1-imidazolyl)propyl]amide] | –
– | 178.5 to 178.9 °C | CCNC(=O)c1cc2nc(-c3ccco3)nn2c(N)n1 [Compound 98, 5-Amino-2-(2-furyl)[1,2,4]triazolo[1,5-c]pyrimidine-7-carboxylic acid ethylamide] | –
